Test results as given in patent US20230014181A1, “CULTURE SYSTEM AND METHODS FOR IMPROVED MODELING OF NEUROLOGICAL CONDITIONS” (Genentech, Inc., priority 2021, published 2023).

Key:
[1] = test system: human iPSC-derived microglia treated with 5 μM soluble Aβ species; test: Microglia plaque formation (Methoxy-X04-positive structures) with dynamin inhibitors; assay type: cell-based; details: 0.6 μM for 24 h
Description: Error bars+/−s.e.m. and n=4 wells; ANOVA ***P<0.001, **P<0.01.
iPSC derived microglia were obtained and screened for microglia marker expression. iPSC microglia were then differentiated. Briefly, iPSCs were treated with BMP, FGF and activin for 2-4 days to induce mesoderm fate, then treated with VEGF and supportive hematopoietic cytokines for 6-10 days to generate hematopoietic progenitors (HPCs). HPCs were seeded onto matrigel-coated flasks, and treated with IL-34, IDE1 (TGF-β1 agonist), and M-CSF for 3-4 weeks to differentiate into microglia. Human iPSC microglia were validated by immunostaining of the following markers: Goat anti-TREM2 (1:500), Mouse anti-MERTK (1:500), Rabbit anti-IBA1 (1:1000), Rabbit anti-TMEM119 (1:500), CD33 (1:500), CX3CR1 (1:500), CD64 (1:500), P2RY12 (1:500), CD32 (1:500), PU.1 (1:500).
To further confirm time-lapsed result, an immunostaining time-course study was performed. Microglia took up Aβs within 30 minutes (FIG. 14D). After 6 hours, small internalized puncta disappeared and a larger, faintly X04 positive, Aβ42 aggregate appeared at the edge near each cell (FIG. 14D). After 1 day, larger Aβ42 aggregates with higher X04 staining intensity were seen next to microglia, and additional microglia began to surround these aggregates. At 4 days X04 dye positive plaque structures were present with surrounding microglia. […]

[2] = test system: Aβ42 oligomer-induced neural toxicity in human iPSC neurons; test: Hit validation by IC50 curves in double culture (MAP2, Synapsin 1/2, CUX2, NFL-H); assay type: cell-based; details: dose response
Description: (§1) Error bars+/−s.e.m. and n=4 wells. IC50 curves were fitted by Prism software.
as §1
Error bars+/−s.e.m. and n=4 wells. IC50 curves were fitted using Prism software.
To further validate this pathway, several known inhibitors of kinases in the DLK signaling pathway were tested to determine whether they could also be neuroprotective in the AD model.

[3] = test system: primary human astrocytes; test: Astrocyte GFAP expression in response to soluble Aβ species; assay type: cell-based; details: astrocytes cultured alone; 3DIV
Description: Error bars+/−s.e.m. and n=4 wells; ANOVA ****P<0.0001, ***P<0.001, **P<0.01.
Astrocytes were then validated. Briefly, primary human astrocytes were detached using Accumax (Innovative Cell Technologies) and seeded onto 384-well plates coated with 1:100 Geltrex™ (Thermofisher) solution for at least 1 hour in a 37° C. cell incubator. Cells were seeded at a density of 2,000 cells/well in Neuron Maintenance Medium (1× BrainPhys™ Basal (StemCell Technology), 1× B27 with Vitamin A, 1×N-2, 5 μg/mL cholesterol, 1 mM creatine, 10 nM β-estradiol, 200 nM ascorbic acid, 1 mM cAMP (Sigma-Aldrich), 20 ng/mL BDNF, 20 ng/mL GDNF, 1 μg/mL Laminin, 0.5 mM GlutaMAX™ (Thermofisher), 1 ng/mL TGF-β1, 1× normocin, 50 U/mL penicillin-streptomycin). Cells were placed in 37° C. cell incubator for 24 hours to allow for attachment. Aβ42 and antibody treatments were added as described in other Examples. Astrogliosis was validated was validated by immunostaining of the following markers: Guinea Pig anti GFAP (1:500), Rabbit anti EAAT1 (1:500), Rabbit anti vimentin (1:500), Rabbit ALDH1L1 (1:500).

[4] = test system: soluble Aβ42 species; test: Anti-Aβ antibody co-treatment rescue of soluble Aβ42 species neurotoxicity in iPSC neurons; assay type: cell-based, human
Description: (§2) Error bars+/−s.e.m. and n=4 wells.
To investigate whether AD pathologies can be studied in a controlled, in vitro system of human neurons, cultured human iPSC-derived neurons were treated with synthetic Aβ42 oligomers, prepared by oligomerization of Aβ42 monomers at 4° C. following previously published protocols (FIG. 2A; following Stine et al., 2011). Briefly, AggreSure™ β-Amyloid (1-42), human monomers (Anaspec) were resuspended in DMSO followed by PBS to form a 100 μM solution. Aβ42 monomers were subsequently incubated at 4° C. for 24 hours, then frozen at −80° C. to stop the oligomerization process. Five to six lots of Aβ42 monomers were screened at time and assessed for neurotoxic and the degree of toxicity. About twenty lots for screened in the course of 4 years. For fluorescent Aβ42 oligomer experiments, Beta-Amyloid (1-42), HiLyte™ Fluor 555-labeled, Human (Anaspec) was used. […]
Several additional tau phosphorylation sites observed in AD, S396/404, S217, S235, S400/T403/S404, and T181, were hyperphosphorylated when treated with Aβ42 oligomers (FIGS. 4V-4Z). […] Using this quantitative platform, the half-maximal inhibitory concentration (IC50) for anti-Aβ antibody rescue of MAP2, synapsin, and pTau induction was generated (FIG. 3R).

[5] = test system: human iPSC neurons and astrocytes treated with 5 μM sAβ42s; test: Focused small molecule screen, double culture (neuron, astrocyte), rescue from sAβ42s toxicity, high content imaging; assay type: cell-based; details: double culture, 5 μM sAβ42s
Procedure, shortened: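 Human iPSC neuron–astrocyte cultures given 5 μM sAβ42 oligomers plus compounds at 50, 25, 12.5 and 6.25 μM (10× additions). Fixed cells immunostained for MAP2, synapsin 1/2, CUX2 and beta III tubulin, imaged by confocal high-content microscopy; % rescue computed, ≥30% in any readout scored as hit.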

[6] = test system: human iPSC neurons, astrocytes and microglia treated with 5 μM sAβ42s; test: Focused small molecule screen, triple culture (neuron, astrocyte, microglia), rescue from sAβ42s toxicity; assay type: cell-based
Procedure, shortened: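 A hit was any compound giving ≥30% rescue of dendrite area (MAP2), synapse count, CUX2 cell count or axon area when dosed against 5 μM sAβ42s toxicity. Testing used iPSC-derived double (neuron/astrocyte) or triple (plus microglia) cultures, at four concentrations of 50, 25, 12.5 and 6.25 μM for double and 50, 12.5, 3.1 and 0.78 μM for triple cultures.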

[7] = test system: human iPSC-derived neurons; test: 21-day time course of single doses of soluble Aβ42 species on iPSC neurons; assay type: cell-based; details: 1.25 μM
Description: To investigate whether AD pathologies can be studied in a controlled, in vitro system of human neurons, cultured human iPSC-derived neurons were treated with synthetic Aβ42 oligomers, prepared by oligomerization of Aβ42 monomers at 4° C. following previously published protocols (FIG. 2A; following Stine et al., 2011). Briefly, AggreSure™ β-Amyloid (1-42), human monomers (Anaspec) were resuspended in DMSO followed by PBS to form a 100 μM solution. Aβ42 monomers were subsequently incubated at 4° C. for 24 hours, then frozen at −80° C. to stop the oligomerization process. Five to six lots of Aβ42 monomers were screened at time and assessed for neurotoxic and the degree of toxicity. […] For fluorescent Aβ42 oligomer experiments, Beta-Amyloid (1-42), HiLyte™ Fluor 555-labeled, Human (Anaspec) was used. For pHrodo experiments, Beta-Amyloid (1-42) buman was labeled with pHrodo™ Green AM Intracellular pH Indicator (Invitrogen) according to manufacturer's protocol.
Prior to experimentation, media volume in wells containing neurons was equalized with liquid handling automation (Bravo) in order to ensure precise control of concentrations. All Aβ42 oligomers, anti-Aβ, small molecules, inflammatory cytokines were prepared at 10× concentration and added to Neuronal Culture Media at an appropriate volume. […]

[8] = test system: primary rat cortical neurons; test: Aβ42 oligomer toxicity in primary rat cortical neurons; assay type: cell-based; details: several lots
Description: as §2
The preps were determined to contain a heterogeneous mixture of both soluble oligomer and fibrils, and thus were referred to as “soluble Aβ42 species” (Aps).

For `O=C(N/N=C/c1ccc(O)c(O)c1)c1cc2ccccc2cc1O` [Dynasore], the “decrease of plaque formation (Methoxy-X04-positive plaque-like structures)” value [1] was “approximately 4 fold”.
With `CCCCCCCCNC(=O)/C(C#N)=C/c1cn(CCCN(C)C)c2ccccc12` [Dynole 34-2] the “decrease of plaque formation (Methoxy-X04-positive plaque-like structures)” value [1] was “approximately 4 fold”.
`Nc1ncc(C(=O)NC2CN(C(=O)C3CC3)C2)c2ccc(-c3cccc(F)c3)nc12` [GNE-495] was tested, and the “neuronal protection against Aβ” value [2] was “conferred neuronal protection against Aβ in a dose-dependent manner”.
`Cc1cc(NC(=O)c2cccc(NC(=O)/C=C/CN(C)C)c2)ccc1Nc1nccc(-c2cccnc2)n1` [JNK-IN-8] was tested, and the “neuronal protection against Aβ” value [2] was “conferred neuronal protection against Aβ in a dose-dependent manner”.
With `Nc1ccc(-c2cnc(N)c(-c3ccc(Cl)cc3)c2)cn1` [PF06260933] the “neuronal protection against Aβ” value [2] was “conferred neuronal protection against Aβ in a dose-dependent manner”.
For `Cc1cc(Nc2cc(N3CCN(C)CC3)nc(Sc3ccc(NC(=O)C4CC4)cc3)n2)n[nH]1` [VX-680], the “neuronal protection against Aβ” value [2] was “conferred neuronal protection against Aβ in a dose-dependent manner”.
For Crenezumab: anti-Aβ antibody, the “GFAP upregulation by soluble Aβ species” value [3] was “blocked”, the “phospho-Tau p396-404 and p400-403-404 upregulation” value ([4]; NAG-NSC Line 2) was “blocked” and the “loss of dendrites (MAP2) and synapses (synapsin)” value ([4]; NAG-NSC Line 2 and primary astrocytes, 5 μM soluble Aβ species, 7 days) was “rescued”.
For MDL 28170, the “% B3T rescue” value ([5]; 6.25 μM compound) was 18%, the “% Cux2 rescue” value ([5]; 6.25 μM compound) was 81% and the “% MAP2 rescue” value ([5]; 6.25 μM compound) was 33%. The “% Synapse rescue” value ([5]; 6.25 μM compound) was 10%, the “% B3T rescue” value ([5]; 12.5 μM compound) was 22% and the “% Cux2 rescue” value ([5]; 12.5 μM compound) was 74%. For the same molecule, the “% MAP2 rescue” value ([5]; 12.5 μM compound) was 33%, the “% Synapse rescue” value ([5]; 12.5 μM compound) was 9% and the “% B3T rescue” value ([5]; 25 μM compound) was 25%. For the same molecule, the “% Cux2 rescue” value ([5]; 25 μM compound) was 84%, the “% MAP2 rescue” value ([5]; 25 μM compound) was 36% and the “% Synapse rescue” value ([5]; 25 μM compound) was 11%. The “% B3T rescue” value ([5]; 50 μM compound) was 47%, the “% Cux2 rescue” value ([5]; 50 μM compound) was 57% and the “% MAP2 rescue” value ([5]; 50 μM compound) was 26%. For the same molecule, the “% Synapse rescue” value ([5]; 50 μM compound) was 23%, the “% B3T rescue” value ([6]; 0.78 μM compound) was 30% and the “% MAP2 rescue” value ([6]; 0.78 μM compound) was 19%. For the same molecule, the “% Synapse rescue” value ([6]; 0.78 μM compound) was 10%, the “% B3T rescue” value ([6]; 12.50 μM compound) was 33% and the “% MAP2 rescue” value ([6]; 12.50 μM compound) was 31%. For the same molecule, the “% Synapse rescue” value ([6]; 12.50 μM compound) was 8%, the “% B3T rescue” value ([6]; 50.00 μM compound) was 73% and the “% MAP2 rescue” value ([6]; 50.00 μM compound) was 47%. The “% Synapse rescue” value ([6]; 50.00 μM compound) was 41%.
“soluble Aβ42 species: heterogeneous mixture of soluble oligomer and fibrils made from synthetic Aβ42 monomers at 4° C.” was tested, and the “dendrite or axon reduction” value [7] was “no effect on dendrite or axon reduction” and the “reduction in dendrites or synapses” value [8] was “did not show reduction in dendrites or synapses”.
